For 17 compounds, Ki and IC50 results are on record in patent US20100286145A1, “ISOPHTHALAMIDE DERIVATIVES INHIBITING BETA-SECRETASE ACTIVITY” (CoMentis, Inc., priority 2007, published 2010).

Assay [1] addresses T1, memapsin 1 (Homo sapiens, UniProt Q9Y5Z0).
T1 sequence (Q9Y5Z0 63-518): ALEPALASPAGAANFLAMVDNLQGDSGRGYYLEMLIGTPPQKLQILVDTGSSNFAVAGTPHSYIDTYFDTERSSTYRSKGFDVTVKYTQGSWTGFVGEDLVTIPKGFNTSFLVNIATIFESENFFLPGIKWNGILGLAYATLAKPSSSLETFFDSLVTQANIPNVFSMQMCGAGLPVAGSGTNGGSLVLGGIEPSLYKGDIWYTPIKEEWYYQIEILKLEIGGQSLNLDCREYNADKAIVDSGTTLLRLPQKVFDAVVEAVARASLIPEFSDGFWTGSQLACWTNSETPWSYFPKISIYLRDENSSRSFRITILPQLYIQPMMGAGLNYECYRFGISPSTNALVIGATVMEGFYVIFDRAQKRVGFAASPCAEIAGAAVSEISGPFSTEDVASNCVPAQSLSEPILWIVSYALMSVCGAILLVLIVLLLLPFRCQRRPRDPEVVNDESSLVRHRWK
The assay can be described thus: Inhibition of memapsin 1 beta-secretase activity (substrate peptide ELDLAVEFWHDR, MALDI-TOF). The format is biochemical.

Assay [2] deals with memapsin 2 (Homo sapiens, UniProt P56817). The assay can be described thus: Inhibition of memapsin 2 beta-secretase activity (fluorogenic substrate FS-2). The format is biochemical. As to conditions: memapsin 2, pH 4, 37° C. Summed up:
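Kinetic fluorogenic assay: hydrolysis of the MCA/DNP-labelled APP Swedish-variant peptide FS-2 monitored as fluorescence rise at 37° C, pH 4, after 20 min enzyme–compound preincubation. Relative rates fitted with a tight-binding inhibitor model.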

Assay [3] has as its target cathepsin D (Homo sapiens, UniProt P07339). The assay can be described thus: Inhibition of cathepsin D activity (substrate peptide ELDLAVEFWHDR, MALDI-TOF). The format is biochemical.
Assay [4] deals with Aβ production in Chinese hamster ovary cells that over-express human APP695 with the London and Swedish mutations. The assay can be described thus: Cellular Aβ IC50 determination (Aβ40 sandwich ELISA). The format is cell-based. As to conditions: Cricetulus griseus. Summed up:
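Aβ40 in media quantified by sandwich ELISA, normalized to control incubations and fitted with a 4-parameter IC50 model. Compounds dosed to a final concentration near 4 μM (0.4% DMSO) on CHO cells expressing human APP695 (London and Swedish mutants) seeded at 10% confluency.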

Setting [5] is: 20 minutes pre-incubation, read-out: M2Ki.
Setting [6] is: cellular Aβ production, read-out: IC50.
The mark [7] stands for this setting: fluorogenic substrate FS-2, read-out: M2Ki.

SMILES strings stand for the structures. Read-outs that look alike come from different tables or passages of the source.

Chain of memapsin 2 (P56817 46-501): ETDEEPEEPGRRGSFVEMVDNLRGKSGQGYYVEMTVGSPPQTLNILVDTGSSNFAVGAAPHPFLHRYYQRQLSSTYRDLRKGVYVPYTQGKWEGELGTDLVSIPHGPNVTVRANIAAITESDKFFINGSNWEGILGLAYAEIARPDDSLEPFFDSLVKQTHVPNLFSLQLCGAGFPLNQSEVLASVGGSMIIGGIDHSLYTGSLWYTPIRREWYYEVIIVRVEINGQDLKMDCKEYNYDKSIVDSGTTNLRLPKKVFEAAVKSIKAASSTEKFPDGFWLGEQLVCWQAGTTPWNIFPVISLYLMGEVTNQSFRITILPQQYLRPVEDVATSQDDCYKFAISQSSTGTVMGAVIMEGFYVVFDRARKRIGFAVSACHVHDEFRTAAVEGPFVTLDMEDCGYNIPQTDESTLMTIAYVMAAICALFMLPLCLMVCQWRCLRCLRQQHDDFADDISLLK
Chain of cathepsin D (P07339 65-412, species assumed): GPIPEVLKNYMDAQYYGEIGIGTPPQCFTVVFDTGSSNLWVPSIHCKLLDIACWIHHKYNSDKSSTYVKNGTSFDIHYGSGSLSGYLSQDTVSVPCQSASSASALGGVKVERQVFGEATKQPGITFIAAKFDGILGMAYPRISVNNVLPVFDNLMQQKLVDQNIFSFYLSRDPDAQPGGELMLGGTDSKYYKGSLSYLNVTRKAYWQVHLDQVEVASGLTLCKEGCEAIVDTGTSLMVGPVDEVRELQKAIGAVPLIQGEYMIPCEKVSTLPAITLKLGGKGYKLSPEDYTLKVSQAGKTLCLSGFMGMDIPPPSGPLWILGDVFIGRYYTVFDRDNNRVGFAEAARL

On to `COC(=O)c1cc(C(=O)N[C@@H](Cc2ccccc2)[C@H](O)CNCc2cccc(OC)c2)cc(C(=O)N(C)Cc2nc(C)cs2)c1` [Compound 17, methyl 3-((2S,3R)-3-hydroxy-4-(3-methoxybenzylamino)-1-phenylbutan-2-ylcarbamoyl)-5-(methyl((4-methylthiazol-2-yl)methyl)carbamoyl)benzoate], for which the values for the Ki in assay [1] (read-out: M1Ki), in assay [2] (setting [5]) and in assay [3] (read-out: CDKi) were over 501 nM, under 300 nM and under 300 nM, respectively. Further, the IC50 in assay [4] (setting [6]) is under 1000 nM.
For `Cc1csc([C@@H](C)N(C)C(=O)c2cccc(C(=O)N[C@@H](Cc3ccccc3)[C@H](O)CNCc3cncc(C(C)C)c3)c2)n1` [Compound 82, N1-((2S,3R)-3-hydroxy-4-((5-isopropylpyridin-3-yl)methylamino)-1-phenylbutan-2-yl)-N3-methyl-N3-((R)-1-(4-methylthiazol-2-yl)ethyl)isophthalamide], the Ki is 301 to 500 nM in assay [1] (read-out: M1Ki), under 300 nM in assay [2] (setting [5]) and 301 to 500 nM in assay [3] (read-out: CDKi). Besides, the half-maximal inhibitory concentration (IC50) in assay [4] (setting [6]) is under 1000 nM.
`COc1cc(CNC[C@@H](O)[C@H](Cc2ccccc2)NC(=O)c2cccc(C(=O)N(C)Cc3nc(C)cs3)c2)cc(C(=O)O)c1` [Compound 72, 3-(((2R,3S)-2-hydroxy-3-(3-(methyl((4-methylthiazol-2-yl)methyl)carbamoyl)benzamido)-4-phenylbutylamino)methyl)-5-methoxybenzoic acid]: the Ki in assay [1] (read-out: M1Ki) is over 501 nM; in assay [2] (setting [5]), under 300 nM; in assay [3] (read-out: CDKi), over 501 nM. In addition, the IC50 in assay [4] (setting [6]) is 1000 to 5000 nM.
For the compound `Cc1cc(C(=O)N[C@@H](Cc2ccccc2)[C@H](O)CNCc2cncc(C(C)C)c2)cc(C(=O)N(C)Cc2nc(C)cs2)c1` [N1-((2S,3R)-3-hydroxy-4-((5-isopropylpyridin-3-yl)methylamino)-1-phenylbutan-2-yl)-N3,5-dimethyl-N3-((4-methylthiazol-2-yl)methyl)isophthalamide], the results for the Ki in assay [1] (read-out: M1 Ki), in assay [2] (read-out: M2 Ki) and in assay [3] (read-out: CathD Ki) were 264 nM, 16.8 nM and 32.3 nM, respectively. In addition, the IC50 in assay [4] (CHO cells, 24 h incubation, Aβ40, read-out: IC50 (cellular Aβ production)) came out at 6 nM.
With `Cc1csc(CN(C)C(=O)c2cccc(C(=O)N[C@@H](Cc3ccccc3)[C@H](O)CNCc3cc(C(C)C)cc(N(C)C)c3)c2)n1` [Compound 90, N1-((2S,3R)-4-(3-(dimethylamino)-5-isopropylbenzylamino)-3-hydroxy-1-phenylbutan-2-yl)-N3-methyl-N3-((4-methylthiazol-2-yl)methyl)isophthalamide], the Ki was over 501 nM in assay [1] (read-out: M1Ki), under 300 nM in assay [2] (setting [5]) and under 300 nM in assay [3] (read-out: CDKi). Moreover, the IC50 in assay [4] (setting [6]) was under 1000 nM.
As for `Cc1csc(CN(C)C(=O)c2cc(C(=O)N[C@@H](Cc3ccccc3)[C@H](O)CNCc3cncc(C(C)C)c3)cc(-c3cnco3)c2)n1` [Compound 218, N1-((2S,3R)-3-hydroxy-4-((5-isopropylpyridin-3-yl)methylamino)-1-phenylbutan-2-yl)-N3-methyl-N3-((4-methylthiazol-2-yl)methyl)-5-(oxazol-5-yl)isophthalamide], the Ki in assay [1] (read-out: M1Ki) and in assay [2] (setting [7]) was under 300 nM throughout. In addition, in assay [4] (setting [6]), the IC50 is under 1000 nM.
For `C=Cc1cc(C(=O)N[C@@H](Cc2ccccc2)[C@H](O)CNCc2cccc(OC)c2)cc(C(=O)N(C)Cc2nc(C)cs2)c1` [Compound 21, N1-((2S,3R)-3-hydroxy-4-(3-methoxybenzylamino)-1-phenylbutan-2-yl)-N3-methyl-N3-((4-methylthiazol-2-yl)methyl)-5-vinylisophthalamide], the results for the Ki in assay [1] (read-out: M1Ki), in assay [2] (setting [5]) and in assay [3] (read-out: CDKi) were over 501 nM, under 300 nM and under 300 nM, respectively. The IC50 in assay [4] (setting [6]) was under 1000 nM.
Take `C[C@@H](NC(=O)c1cc(C(=O)N[C@@H](Cc2ccccc2)[C@H](O)CNCc2cccc(Cl)c2)cc(N(C)S(C)(=O)=O)c1)c1ccccc1` [Compound 86, N1-((2S,3R)-4-(3-chlorobenzylamino)-3-hydroxy-1-phenylbutan-2-yl)-5-(N-methylmethylsulfonamido)-N3-((R)-1-phenylethyl)isophthalamide]: the values for the Ki in assay [1] (read-out: M1Ki), in assay [2] (setting [5]) and in assay [3] (read-out: CDKi) were under 300 nM, under 300 nM and 301 to 500 nM, respectively. Further, in assay [4] (setting [6]), the IC50 was under 1000 nM.
With `C[C@@H](NC(=O)c1cc(C(=O)N[C@@H](Cc2ccccc2)[C@H](O)CNCc2cncc(C(F)(F)F)c2)cc(N(C)S(C)(=O)=O)c1)c1ccccc1` [Compound 81, N1-((2S,3R)-3-hydroxy-1-phenyl-4-((5-(trifluoromethyl)pyridin-3-yl)methylamino)butan-2-yl)-5-(N-methylmethylsulfonamido)-N3-((R)-1-phenylethyl)isophthalamide], the results for the Ki in assay [1] (read-out: M1Ki), in assay [2] (setting [5]) and in assay [3] (read-out: CDKi) were under 300 nM, under 300 nM and over 501 nM, respectively. Moreover, the 50% inhibitory concentration (IC50) in assay [4] (setting [6]) was under 1000 nM.
`COc1cccc(CNC[C@@H](O)[C@H](Cc2ccccc2)NC(=O)c2cc(OC)cc(C(=O)N(C)Cc3nc(C)cs3)c2)c1` [Compound 3, N1-((2S,3R)-3-hydroxy-4-(3-methoxybenzylamino)-1-phenylbutan-2-yl)-5-methoxy-N3-methyl-N3-((4-methylthiazol-2-yl)methyl)isophthalamide]: the Ki was 301 to 500 nM in assay [1] (read-out: M1Ki), under 300 nM in assay [2] (setting [5]) and under 300 nM in assay [3] (read-out: CDKi). Moreover, the half-inhibitory concentration (IC50) in assay [4] (setting [6]) is under 1000 nM.
As for `Cc1cc(C(=O)N[C@@H](Cc2ccccc2)[C@H](O)CNCc2cncc(C(C)C)c2)cc(C(=O)N(Cc2nc(C)cs2)C2CC2)c1` [Compound 41, N1-cyclopropyl-N3-((2S,3R)-3-hydroxy-4-((5-isopropylpyridin-3-yl)methylamino)-1-phenylbutan-2-yl)-5-methyl-N1-((4-methylthiazol-2-yl)methyl)isophthalamide], the Ki in assay [1] (read-out: M1Ki), in assay [2] (setting [5]) and in assay [3] (read-out: CDKi) was under 300 nM each time. Besides, in assay [4] (setting [6]), the half-maximal inhibitory concentration (IC50) is under 1000 nM.
As to `Cc1csc(CN(C)C(=O)c2cccc(C(=O)N[C@@H](Cc3ccccc3)[C@H](O)CNCc3cc(CS(C)(=O)=O)cc(C(C)C)c3)c2)n1` [Compound 228, N1-((2S,3R)-3-hydroxy-4-(3-isopropyl-5-(methylsulfonylmethyl)benzylamino)-1-phenylbutan-2-yl)-N3-methyl-N3-((4-methylthiazol-2-yl)methyl)isophthalamide], the Ki in assay [1] (read-out: M1Ki) is 301 to 500 nM; in assay [2] (setting [7]) it was under 300 nM. Moreover, in assay [4] (setting [6]), the half-inhibitory concentration (IC50) was under 1000 nM.
In the case of `COc1cc(C(=O)N[C@@H](Cc2ccccc2)[C@H](O)CNCc2cncc(C(C)C)c2)cc(C(=O)N(C)Cc2nc(C)cs2)c1` [Compound 40, N1-((2S,3R)-3-hydroxy-4-((5-isopropylpyridin-3-yl)methylamino)-1-phenylbutan-2-yl)-5-methoxy-N3-methyl-N3-((4-methylthiazol-2-yl)methyl)isophthalamide], the Ki in assay [1] (read-out: M1Ki), in assay [2] (setting [5]) and in assay [3] (read-out: CDKi) was under 300 nM throughout. Moreover, the IC50 in assay [4] (setting [6]) is under 1000 nM.
As for `Cc1csc(CN(C(=O)c2cccc(C(=O)N[C@@H](Cc3ccccc3)[C@H](O)CNCc3cccc(C(F)(F)F)c3)c2)C2CC2)n1` [Compound 29, N1-cyclopropyl-N3-((2S,3R)-3-hydroxy-1-phenyl-4-(3-(trifluoromethyl)benzylamino)butan-2-yl)-N1-((4-methylthiazol-2-yl)methyl)isophthalamide], the Ki in assay [1] (read-out: M1Ki) was 301 to 500 nM; in assay [2] (setting [5]), under 300 nM; in assay [3] (read-out: CDKi) it was under 300 nM. Besides, the IC50 in assay [4] (setting [6]) is under 1000 nM.
Regarding `COc1cccc(CNC[C@@H](O)[C@H](Cc2ccccc2)NC(=O)c2cc(C(N)=O)cc(C(=O)N[C@H](C)c3ccccc3)c2)c1` [Compound 91, N1-((2S,3R)-3-hydroxy-4-(3-methoxybenzylamino)-1-phenylbutan-2-yl)-N3-((R)-1-phenylethyl)benzene-1,3,5-tricarboxamide], the Ki is under 300 nM in assay [1] (read-out: M1Ki), over 501 nM in assay [2] (setting [5]) and over 501 nM in assay [3] (read-out: CDKi).
As for `Cc1csc(CN(C)C(=O)c2cc(C(=O)N[C@@H](Cc3ccccc3)[C@H](O)CNCc3cncc(C(C)C)c3)cc(-c3ncco3)c2)n1` [Compound 170, N1-((2S,3R)-3-hydroxy-4-((5-isopropylpyridin-3-yl)methylamino)-1-phenylbutan-2-yl)-N3-methyl-N3-((4-methylthiazol-2-yl)methyl)-5-(oxazol-2-yl)isophthalamide], the Ki in assay [1] (read-out: M1Ki) and in assay [2] (setting [5]) was under 300 nM in each case. The IC50 in assay [4] (setting [6]) is under 1000 nM.
Take `Cc1csc(CN(C)C(=O)c2cccc(C(=O)N[C@@H](Cc3cc(F)cc(F)c3)[C@H](O)CNCc3cncc(C(C)C)c3)c2)n1` [Compound 208, N1-((2S,3R)-1-(3,5-difluorophenyl)-3-hydroxy-4-((5-isopropylpyridin-3-yl)methylamino)butan-2-yl)-N3-methyl-N3-((4-methylthiazol-2-yl)methyl)isophthalamide]: the Ki in assay [1] (read-out: M1Ki) and in assay [2] (setting [5]) was under 300 nM in each case. For the same compound, the IC50 in assay [4] (setting [6]) was under 1000 nM.

By IC50 is commonly meant the midpoint of a concentration-inhibition curve.
